Assay results from US10266549B2, “ULK1 inhibitors and methods using same” (SALK INSTITUTE FOR BIOLOGICAL STUDIES, priority 2014, dated 2019).

Target: ULK1 (Homo sapiens (Human), UniProt O75385)
Experiment: ULK1 inhibition assay (Table 1)
Type: biochemical
Settings: * = tested as a mixture of regioisomers

Sequence of ULK1 (O75385 whole entry, species assumed): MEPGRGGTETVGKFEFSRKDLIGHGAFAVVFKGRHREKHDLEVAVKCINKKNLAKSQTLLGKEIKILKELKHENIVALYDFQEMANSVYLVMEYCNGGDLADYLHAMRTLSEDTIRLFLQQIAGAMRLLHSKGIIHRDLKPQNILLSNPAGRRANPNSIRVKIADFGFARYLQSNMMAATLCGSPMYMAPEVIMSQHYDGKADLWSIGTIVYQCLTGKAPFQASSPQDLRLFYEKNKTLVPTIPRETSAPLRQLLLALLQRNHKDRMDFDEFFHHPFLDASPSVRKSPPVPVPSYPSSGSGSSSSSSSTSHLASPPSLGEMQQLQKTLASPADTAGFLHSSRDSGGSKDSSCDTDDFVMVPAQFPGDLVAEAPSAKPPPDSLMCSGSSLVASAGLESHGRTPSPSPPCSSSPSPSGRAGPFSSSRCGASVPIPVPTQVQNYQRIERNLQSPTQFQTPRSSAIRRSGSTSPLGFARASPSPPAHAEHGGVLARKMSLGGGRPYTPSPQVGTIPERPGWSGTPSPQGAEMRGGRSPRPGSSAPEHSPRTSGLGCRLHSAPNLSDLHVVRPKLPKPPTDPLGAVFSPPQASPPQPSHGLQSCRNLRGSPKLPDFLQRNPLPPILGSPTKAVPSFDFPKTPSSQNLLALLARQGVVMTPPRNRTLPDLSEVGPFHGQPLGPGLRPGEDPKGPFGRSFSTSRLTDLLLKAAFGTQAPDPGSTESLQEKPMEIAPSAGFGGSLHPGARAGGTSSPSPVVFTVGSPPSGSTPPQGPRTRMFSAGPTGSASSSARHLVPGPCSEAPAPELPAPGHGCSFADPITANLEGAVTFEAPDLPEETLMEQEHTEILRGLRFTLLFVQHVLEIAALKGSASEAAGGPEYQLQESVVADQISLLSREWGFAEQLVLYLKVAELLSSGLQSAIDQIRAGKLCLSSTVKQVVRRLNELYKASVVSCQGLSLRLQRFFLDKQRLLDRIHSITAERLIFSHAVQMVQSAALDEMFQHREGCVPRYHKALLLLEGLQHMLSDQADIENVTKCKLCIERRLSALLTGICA

## COc1cc(N2CCOCC2)ccc1Nc1ncc(C(F)(F)F)c(NCc2cccc(S(C)(=O)=O)c2)n1 [compound 52, N^2-(2-Methoxy-4-morpholinophenyl)-N^4-(3-(methylsulfonyl)benzyl)-5-(trifluoromethyl)pyrimidine-2,4-diamine]
  IC50: > 2 µM

## CNC(=O)c1ccccc1Nc1nc(Nc2ccccc2C)ncc1Cl [compound 53, 2-(5-Chloro-2-(o-tolylamino)pyrimidin-4-ylamino)-N-methylbenzamide]
  IC50: > 2 µM

## COc1ccc(C)c(Nc2ncc(Cl)c(Nc3cccc(CC#N)c3)n2)c1 [compound 54, 2-(3-(5-Chloro-2-(5-methoxy-2-methylphenylamino)pyrimidin-4-ylamino)phenyl)acetonitrile]
  IC50: > 2 µM

## COc1ccc(C)c(Nc2ncc(Cl)c(Nc3nccc(C)n3)n2)c1 [compound 55, 5-Chloro-N^2-(5-methoxy-2-methylphenyl)-N^4-(4-methylpyrimidin-2-yl)pyrimidine-2,4-diamine]
  IC50: > 2 µM

## CS(=O)(=O)c1cccc(CNc2nc(Nc3ccc4c(c3)CCC(=O)N4)ncc2F)c1 [compound 56, 6-((5-Fluoro-4-((3-(methylsulfonyl)benzyl)amino)pyrimidin-2-yl)amino)-3,4-dihydroquinolin-2(1H)-one]
  IC50: > 2 µM

## CNC(=O)c1ccccc1Nc1nc(Nc2cc3c(cc2C)OCO3)ncc1Cl [compound 57, 2-(5-Chloro-2-(6-methylbenzo[d][1,3]dioxol-5-ylamino)pyrimidin-4-ylamino)-N-methylbenzamide]
  IC50: < 0.2 µM

## O=C1CCc2cc(Nc3ncc(C(F)(F)F)c(Nc4nccs4)n3)ccc2N1 [compound 58, 6-(4-(Thiazol-2-ylamino)-5-(trifluoromethyl)pyrimidin-2-ylamino)-3,4-dihydroquinolin-2(1H)-one]
  IC50: > 2 µM

## CNC(=O)c1ccccc1Nc1ccnc(Nc2cc(OC)c(OC)c(OC)c2)n1 [compound 60, N-Methyl-2-(2-(3,4,5-trimethoxyphenylamino)pyrimidin-4-ylamino)benzamide]
  IC50: < 0.2 µM

## N#CCc1cccc(Nc2nc(Nc3ccc4c(c3)CCC(=O)N4)ncc2C(F)(F)F)c1 [compound 61, 2-(3-(2-(2-Oxo-1,2,3,4-tetrahydroquinolin-6-ylamino)-5-(trifluoromethyl)pyrimidin-4-ylamino)phenyl)acetonitrile]
  IC50: < 0.2 µM

## O=C1CCc2cc(Nc3ncc(C(F)(F)F)c(SCc4ccccc4)n3)ccc2N1 [compound 62, 6-(4-(Benzylthio)-5-(trifluoromethyl)pyrimidin-2-ylamino)-3,4-dihydroquinolin-2(1H)-one]
  IC50: < 0.2 µM

## O=C1CCc2cc(Nc3ncc(C(F)(F)F)c(C#Cc4ccccc4)n3)ccc2N1 [compound 64, 6-(4-(Phenylethynyl)-5-(trifluoromethyl)pyrimidin-2-ylamino)-3,4-dihydroquinolin-2(1H)-one]
  IC50: > 2 µM

## O=C1CCc2cc(Nc3ncc(C(F)(F)F)c(CCc4ccccc4)n3)ccc2N1 [compound 66, 6-((4-Phenethyl-5-(trifluoromethyl)pyrimidin-2-yl)amino)-3,4-dihydroquinolin-2(1H)-one]
  IC50: 0.2 to 2 µM

## Cc1cnc(Nc2ccc3c(c2)CCC(=O)N3)nc1NCc1cccc(S(C)(=O)=O)c1 [compound 67, 6-((5-Methyl-4-((3-(methylsulfonyl)benzyl)amino)pyrimidin-2-yl)amino)-3,4-dihydroquinolin-2(1H)-one]
  IC50: > 2 µM

## O=C1CCc2cc(Nc3ncc(C(F)(F)F)c(/C=C/c4ccccc4)n3)ccc2N1 [compound 69, (E)-6-(4-Styryl-5-(trifluoromethyl)pyrimidin-2-ylamino)-3,4-dihydroquinolin-2(1H)-one]
  IC50: < 0.2 µM

## CNC(=O)c1ccccc1Nc1nc(Nc2cc(OC)c(OC)c(OC)c2)ncc1/C=C/c1ccccc1 [compound 71, (E)-N-Methyl-2-((5-styryl-2-((3,4,5-trimethoxyphenyl)amino)pyrimidin-4-yl)amino)benzamide]
  IC50: < 0.2 µM

## O=C1CCc2cc(Nc3ncc(C(F)(F)F)c(-c4ccccc4)n3)ccc2N1 [compound 72, 6-(4-Phenyl-5-(trifluoromethyl)pyrimidin-2-ylamino)-3,4-dihydroquinolin-2(1H)-one]
  IC50: > 2 µM

## CNC(=O)c1ccccc1Nc1nc(Nc2cc(OC)c(OC)c(OC)c2)ncc1-c1ccccc1 [compound 73, N-Methyl-2-(5-phenyl-2-(3,4,5-trimethoxyphenylamino)pyrimidin-4-ylamino)benzamide]
  IC50: < 0.2 µM

## CNC(=O)c1ccccc1Nc1nc(Nc2ccccc2Cl)ncc1Cl [compound 74, 2-(5-Chloro-2-(2-chlorophenylamino)pyrimidin-4-ylamino)-N-methylbenzamide]
  IC50: 0.2 to 2 µM

## CNS(=O)(=O)c1ccccc1Nc1nc(Nc2ccc(N3CCOCC3)cc2OC)ncc1Br [compound 75, 2-(5-Bromo-2-(2-methoxy-4-morpholinophenylamino)pyrimidin-4-ylamino)-N-methylbenzenesulfonamide]
  IC50: 0.2 to 2 µM

## CNC(=O)c1ccccc1Nc1nc(Nc2ccc3c(c2)CCC(=O)N3)ncc1C(F)(F)F [compound 76, N-Methyl-2-(2-(2-oxo-1,2,3,4-tetrahydroquinolin-6-ylamino)-5-(trifluoromethyl)pyrimidin-4-ylamino)benzamide]
  IC50: < 0.2 µM

## CNC(=O)c1ccccc1Nc1nc(Nc2cc(N3CCOCC3)cc(N3CCOCC3)c2)ncc1Cl [compound 78, 2-(5-Chloro-2-(3,5-dimorpholinophenylamino)pyrimidin-4-ylamino)-N-methylbenzamide]
  IC50: 0.2 to 2 µM

## COc1cc(N2CCOCC2)ccc1Nc1ncc(Br)c(Nc2ccccc2S(=O)(=O)N(C)C)n1 [compound 80, 2-(5-Bromo-2-(2-methoxy-4-morpholinophenylamino)pyrimidin-4-ylamino)-N—N-dimethylbenzenesulfonamide]
  IC50: < 0.2 µM

## O=C1CCc2cc(Nc3ncc(C(F)(F)F)c(OCc4ccccc4)n3)ccc2N1 [compound 81, 6-(4-(Benzyloxy)-5-(trifluoromethyl)pyrimidin-2-ylamino)-3,4-dihydroquinolin-2(1H)-one]
  IC50: < 0.2 µM

## COc1c(C)cnc(CNc2nc(Nc3ccc4c(c3)CCC(=O)N4)ncc2C(F)(F)F)c1C [compound 82, 6-((4-(((4-Methoxy-3,5-dimethylpyridin-2-yl)methyl)amino)-5-(trifluoromethyl)pyrimidin-2-yl)amino)-3,4-dihydroquinolin-2(1H)-one]
  IC50: < 0.2 µM

## Cc1cccc(Oc2nc(Nc3ccc4c(c3)CCC(=O)N4)ncc2C(F)(F)F)c1C [compound 83, 6-((4-(2,3-Dimethylphenoxy)-5-(trifluoromethyl)pyrimidin-2-yl)amino)-3,4-dihydroquinolin-2(1H)-one]
  IC50: < 0.2 µM

## CNC(=O)c1ccccc1Nc1nc(Nc2cc(OC)c(OC)c(OC)c2)ncc1CCc1ccccc1 [compound 87, N-Methyl-2-((5-phenethyl-2-((3,4,5-trimethoxyphenyl)amino)pyrimidin-4-yl)amino)benzamide]
  IC50: 0.2 to 2 µM

## CNC(=O)c1ccccc1Nc1nc(Nc2ccc3c(c2)CCC(=O)N3)ncc1-c1ccccc1 [compound 89, N-Methyl-2-((2-((2-oxo-1,2,3,4-tetrahydroquinolin-6-yl)amino)-5-phenylpyrimidin-4-yl)amino)benzamide]
  IC50: < 0.2 µM

## CNC(=O)c1ccccc1Nc1nc(Nc2cc(N3CCOCC3)cc(N3CCOCC3)c2)ncc1C(F)(F)F [compound 90, 2-(2-(3,5-dimorpholinophenylamino)-5-(trifluoromethyl)pyrimidin-4-ylamino)-N-methylbenzamide]
  IC50: < 0.2 µM

## CNC(=O)c1ccccc1Oc1nc(Nc2cc(OC)c(OC)c(OC)c2)ncc1C(F)(F)F [compound 92, N-Methyl-2-(5-(trifluoromethyl)-2-(3,4,5-trimethoxyphenylamino)pyrimidin-4-yloxy)benzamide]
  IC50: < 0.2 µM

## CNC(=O)c1ccccc1Oc1nc(Nc2ccccc2)ncc1C(F)(F)F [compound 99, N-methyl-2-((2-(phenylamino)-5-(trifluoromethyl)pyrimidin-4-yl)oxy)benzamide]
  IC50: > 2 µM

## CNC(=O)c1ccccc1Oc1nc(Nc2cc(Br)ccc2C)ncc1C(F)(F)F [compound 100, 2((2-((5-bromo-2-methylphenyl)amino)-5-(trifluoromethyl)pyrimidin-4-yl)oxy)-N-methylbenzamide]
  IC50: > 2 µM

## CNC(=O)c1ccccc1Oc1nc(Nc2cc(OC)ccc2C)ncc1C(F)(F)F [compound 101, 2-((2-((5-methoxy-2-methylphenyl)amino)-5-(trifluoromethyl)pyrimidin-4-yl)oxy)-N-methylbenzamide]
  IC50: > 2 µM

## CNC(=O)c1ccccc1Oc1nc(Nc2ccc(C)c(Br)c2)ncc1C(F)(F)F [compound 102, 2-((2-((3-bromo-4-methylphenyl)amino)-5-(trifluoromethyl)pyrimidin-4-yl)oxy)-N-methylbenzamide]
  IC50: > 2 µM

## CNC(=O)c1ccccc1Oc1nc(Nc2ccccc2OC)ncc1C(F)(F)F [compound 103, 2-((2-((2-methoxyphenyl)amino)-5-(trifluoromethyl)pyrimidin-4-yl)oxy)-N-methylbenzamide]
  IC50: > 2 µM

## CNC(=O)c1ccccc1Oc1nc(Nc2cc(C)ccc2C)ncc1C(F)(F)F [compound 104, 2-((2-((2,5-dimethylphenyl)amino)-5-(trifluoromethyl)pyrimidin-4-yl)oxy)-N-methylbenzamide]
  IC50: > 2 µM

## CNC(=O)c1ccccc1Oc1nc(Nc2ccc(C)c(C)c2)ncc1C(F)(F)F [compound 106, 2-((2-((3,4-dimethylphenyl)amino)-5-(trifluoromethyl)pyrimidin-4-yl)oxy)-N-methylbenzamide]
  IC50: 0.2 to 2 µM

## CNC(=O)c1ccccc1Oc1nc(Nc2ccc(C)cc2Cl)ncc1C(F)(F)F [compound 107, 2-((2-((2-chloro-4-methylphenyl)amino)-5-(trifluoromethyl)pyrimidin-4-yl)oxy)-N-methylbenzamide]
  IC50: > 2 µM

## CNC(=O)c1ccccc1Oc1nc(Nc2ccc3c(c2)CCC(=O)N3)ncc1C(F)(F)F [compound 110, N-methyl-2-((2-((2-oxo-1,2,3,4-tetrahydroquinolin-6-yl)amino)-5-(trifluoromethyl)pyrimidin-4-yl)oxy)benzamide]
  IC50: 0.2 to 2 µM

## CNC(=O)c1ccccc1Oc1nc(Nc2ccccc2)ncc1Br [compound 111, 2-((5-bromo-2-(phenylamino)pyrimidin-4-yl)oxy)-N-methyl benzamide]
  IC50: > 2 µM
